From patent US8912200B2, “Alkynyl substituted pyrimidinyl-pyrroles active as kinases inhibitors” (Nerviano Medical Sciences S.R.L., priority 2011, dated 2014)
pIC50: −log10 of the molar value.

Assays:
[1] = system: JAK2 dependent human megakaryoblastic leukemia cell line SET-2; assay: Cell proliferation assay (CellTiter-Glo, 72 hours); type: cell-based; conditions: Homo sapiens, SET-2 cells
Procedure, shortened: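 About 5×10^3 SET-2 cells per well, in RPMI-1640 with 10% FBS, were exposed to inhibitor dilutions for 72 hours at 37 °C, 5% CO2. Viability read by CellTiter-Glo luminescence. IC50 from sigmoidal fitting of 8-point dilution curves.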

JAK2 kinase domain = target: T1, JAK2 kinase domain (Homo sapiens, UniProt O60674); assay: Biochemical assay for inhibitors of JAK kinase activity (JAK2, 33P-γ-ATP/dowex resin); conditions: JAK2 kinase domain 1 nM, 60 μM ATP
T1 construct: commercially available JAK2 kinase domain; purchased Invitrogen, Eugene, Oreg
Procedure, shortened: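 Human JAK2 (1 nM) phosphorylated peptide BioDBn*306 (64 μM) with 60 μM ATP plus 3 nM 33P-γ-ATP in HEPES pH 7.5/MgCl2/DTT buffer, 60 min at room temperature. Unreacted ATP captured by Dowex resin; supernatant β-counted. IC50 from sigmoidal fit of ten-point 1:3 dilution curves.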

Lyn full length = target: T2, Lyn full length (Homo sapiens, UniProt P07948); assay: Biochemical assay for inhibitors of Lyn (Src family) kinase activity; conditions: Lyn full length 1 nM, 25 μM ATP
T2 construct: The assay has been performed using Lyn full length
Procedure, shortened: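 Radiometric Lyn assay: 1 nM full-length enzyme in 50 mM HEPES pH 7.5 with 25 μM ATP plus 33P-γ-ATP and 250 μM ABI 1 peptide, 60 min at room temperature. Unreacted ATP removed by Dowex resin; supernatant β-counted. IC50 from sigmoidal fit of ten-point 1:3 dilution curves.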

T1 sequence (O60674 849-1124 limits assumed): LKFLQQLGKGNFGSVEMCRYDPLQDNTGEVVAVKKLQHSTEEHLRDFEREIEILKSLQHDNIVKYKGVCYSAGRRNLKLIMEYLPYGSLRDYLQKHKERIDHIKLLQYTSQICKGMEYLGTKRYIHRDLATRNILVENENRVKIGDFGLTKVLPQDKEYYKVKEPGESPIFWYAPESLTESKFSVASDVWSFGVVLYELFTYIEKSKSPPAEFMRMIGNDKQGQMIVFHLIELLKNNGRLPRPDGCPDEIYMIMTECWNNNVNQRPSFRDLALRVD
T2 sequence (P07948 whole entry): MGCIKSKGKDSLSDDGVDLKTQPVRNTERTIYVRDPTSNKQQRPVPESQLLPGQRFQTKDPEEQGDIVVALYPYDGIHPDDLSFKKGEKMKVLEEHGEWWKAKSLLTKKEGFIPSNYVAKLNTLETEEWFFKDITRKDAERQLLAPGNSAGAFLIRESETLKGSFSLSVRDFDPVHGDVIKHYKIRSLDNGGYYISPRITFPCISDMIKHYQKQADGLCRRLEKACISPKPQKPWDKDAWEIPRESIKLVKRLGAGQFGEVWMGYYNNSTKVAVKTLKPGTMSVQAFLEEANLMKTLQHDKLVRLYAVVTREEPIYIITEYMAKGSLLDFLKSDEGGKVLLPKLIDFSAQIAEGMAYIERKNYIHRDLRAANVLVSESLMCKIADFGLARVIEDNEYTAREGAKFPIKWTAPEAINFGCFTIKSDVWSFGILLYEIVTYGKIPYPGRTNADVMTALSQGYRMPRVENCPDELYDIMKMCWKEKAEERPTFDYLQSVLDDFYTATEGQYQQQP

SMILES: Cc1ccc(Cl)cc1-c1[nH]c(-c2nc(N)ncc2C#CCN2CCN(C)CC2)cc1C(N)=O [compound 50, 5-{2-Amino-5-[3-(4-methylpiperazin-1-yl)prop-1-yn-1-yl]pyrimidin-4-yl}-2-(5-chloro-2-methylphenyl)-1H-pyrrole-3-carboxamide]
- pIC50 [1]: 5.86
- pIC50 (JAK2 kinase domain): 8.15
- pIC50 (Lyn full length): 7.59

SMILES: Cc1ccc(Cl)cc1-c1[nH]c(-c2nc(N)ncc2C#Cc2cccc(N3CCN(C)CC3)c2)cc1C(N)=O [compound 47, 5-(2-Amino-5-{[3-(4-methylpiperazin-1-yl)phenyl]ethynyl}pyrimidin-4-yl)-2-(5-chloro-2-methylphenyl)-1H-pyrrole-3-carboxamide]
- pIC50 [1]: 6.66
- pIC50 (JAK2 kinase domain): 8.52
- pIC50 (Lyn full length): 8.22

SMILES: Cc1ccc(Cl)cc1-c1[nH]c(-c2nc(N)ncc2C#Cc2ccc(N3CCN(C)CC3)cc2)cc1C(N)=O [compound 11, 5-(2-Amino-5-{[4-(4-methylpiperazin-1-yl)phenyl]ethynyl}pyrimidin-4-yl)-2-(5-chloro-2-methylphenyl)-1H-pyrrole-3-carboxamide]
- pIC50 [1]: 7.05
- pIC50 (JAK2 kinase domain): 8.40
- pIC50 (Lyn full length): 8.10
